Source: US20140288025A1, “FATTY ACID ANTIVIRAL CONJUGATES AND THEIR USES” (Catabasis Pharmaceuticals, Inc., priority 2013, published 2014)
pIC50: −log10 of the molar value. Read-outs that look alike come from different tables or passages of the source.

Key:
HIV-1IIIB strain = assay: HIV-1 cytoprotection assay (CEM-SS cells, MTS dye reduction); format: cell-based; conditions: for IC50: Human immunodeficiency virus 1, IIIB, CEM-SS, 144 h, read-out: IC50 HIV-1IIIB strain (nM)
Experimental: Cytoprotection assays are commonly used for evaluating the antiviral efficacy of test compounds against a variety of viruses in different cell lines. […] Briefly, virus and cells are mixed in the presence of test compound and incubated for 6 days. […] Each assay plate contains cell control wells (cells only), virus control wells (cells plus virus), compound toxicity control wells (cells plus compound only), compound colorimetric control wells (compound only), as well as experimental wells (compound plus cells plus virus). Cytoprotection and compound cytotoxicity are assessed by MTS (CellTiter®96 Reagent, Promega, Madison Wis.) dye reduction. […] Each assay includes the HIV reverse transcriptase inhibitor AZT as a positive control.
CEM-SS cells were obtained from the NIH AIDS Research and Reference Reagent Program and are routinely passaged in T-75 flasks using standard tissue culture techniques based on the specifications provided by the supplier. On the day preceding the assay, the cells are split 1:2 to assure they are in an exponential growth phase at the time of infection. Total cell number and percent viability determinations are performed using a hemacytometer and trypan blue exclusion. […] The cells are re-suspended at 5×10^4 cells/mL in tissue culture medium and added to the drug-containing 96-well microtiter plates in a volume of 50 μl.
The viruses used for this assay are CXCR4-tropic laboratory virus strains. The most commonly used strains are HIV-1RF and HIV-1IIIB (each obtained from the NIH AIDS Research and Reference Reagent Program). For each assay, a pre-titered aliquot of virus is removed from the freezer (−80° C.) and allowed to thaw slowly to room temperature in a biological safety cabinet. The virus is re-suspended and diluted into tissue culture medium such that the amount of virus added to each well in a volume of 50 μl is the amount determined to give between 85 to 95% cell killing at 6 days post-infection.
Each plate contains cell control wells (cells only), virus control wells (cells plus virus), drug cytotoxicity wells (cells plus drug only), drug colorimetric control wells (drug only), background control wells (media only), as well as experimental wells (drug plus cells plus virus). Samples are evaluated for antiviral efficacy with triplicate measurements using 6 concentrations at half-log dilutions (12 concentrations can also be performed) in order to determine IC50 values and with duplicate measurements to determine cellular cytotoxicity, if detectable.
100% EtOH is added to the compounds of the invention such that the EtOH stock concentration is 50 mM. […] (VWR Ultrasonics Cleaner, Model #B8500A-DTH with “Sonics Power” set to HI); e) The 1:2 serial dilutions of the 1 mM 10× stock solution with FBS/2% EtOH are prepared such that the concentrations of the 10× stock solutions are 1 mM, 0.5 mM, 0.25 mM, etc., in FBS with 2% EtOH. Medium is aspirated off cells and replaced with serum free medium.

NF-κB = NF-κB luciferase reporter assay in RAW 264.7 macrophages; format: cell-based; conditions: for pIC50 / IC50: Mus musculus; for pIC50: RAW264.7, read-out: NF-kB inhibitory activity IC50; for pIC50 / NF-kB inhibitory activity IC50 μM: RAW 264.7 reporter cells, 200 ng/ml LPS, 3 hours; for IC50: RAW264.7, 3 h, read-out: NF-kB inhibitory activity IC50 μM
Experimental: RAW 264.7 cells stably expressing a 3×NFkB response element-drive luciferase reporter were seeded into 96 well plates in sera-free medium (Optimem) 18 hours prior to compound application. Compounds of the invention were prepared by first making 100 mM stock solutions in EtOH. […] Cells were then stimulated with 200 ng/ml LPS or vehicle control for 3 hours in the presence of the compounds of the invention. A set of six vehicles was left unstimulated with LPS in order to measure the assay floor. AlamarBlue viability dye (Invitrogen) was added to cells simultaneously with the delivery of LPS (final AlamarBlue concentration of 10%). After the 3 h incubation period with LPS, cell viability was measured by reading fluorescence (excitation 550 nm, emission 595 nm) with a Perkin Elmer Victor V plate reader. Then cell media was aspirated from each well. Luciferase signal was then developed by addition of the Britelite Plus reagent (Perkin Elmer). Luciferase activity was measured with the Perkin Elmer Victor V plate reader. NE-κB activity was expressed as a percent of the vehicle control wells (stimulated with LPS). Compounds were tested at 6 dose point titrations in triplicate to determine IC50 values.

[1] = CEM-SS cells, HIV-1 IIIB strain, 6 days, MTS

pIC50 (NF-κB) | SMILES | further results
> 4.30 | CC/C=C\C/C=C\C/C=C\C/C=C\C/C=C\CCCC(=O)Nc1ccc(S(=O)(=O)N(CC(C)C)C[C@@H](O)[C@H](Cc2ccccc2)NC(=O)O[C@H]2CO[C@H]3OCC[C@H]32)cc1 [VII-2, (3R,3aS,6aR)-hexahydrofuro[2,3-b]furan-3-yl((2S,3R)-3-hydroxy-4-(4-((5Z,8Z,11Z,14Z,17Z)-icosa-5,8,11,14,17-pentaenamido)-N-isobutylphenylsulfonamido)-1-phenylbutan-2-yl)carbamate] | IC50 HIV-1IIIB strain (nM) (HIV-1IIIB strain; [1]): + ++
> 4.30 | CC/C=C\C/C=C\C/C=C\C/C=C\C/C=C\C/C=C\CCC(=O)NCCN(C)CCNC(=O)OC[C@H]1O[C@@H](n2ccc(N)nc2=O)[C@](C)(F)[C@@H]1O [Example V-30, ((2R,3R,4R,5R)-5-(4-amino-2-oxopyrimidin-1(2H)-yl)-4-fluoro-3-hydroxy-4-methyltetrahydrofuran-2-yl)methyl (2-((2-((4Z,7Z,10Z,13Z,16Z,19Z)-docosa-4,7,10,13,16,19-hexaenamido)ethyl)(methyl)amino)ethyl)carbamate] | –
< 3.70 | CC(=O)OCC(CCn1cnc2cnc(N)nc21)COC(C)=O [Famciclovir, reference compound] | –
– | CC/C=C\C/C=C\C/C=C\C/C=C\C/C=C\C/C=C\CCC(=O)NCCNC(=O)OC[C@H]1O[C@H](n2cc(C)c(=O)[nH]c2=O)C[C@@H]1N=[N+]=[N-] [Example V-5, ((2S,3S,5S)-3-azido-5-(5-methyl-2,4-dioxo-3,4-dihydropyrimidin-1(2H)-yl)tetrahydrofuran-2-yl)methyl (2-((4Z,7Z,10Z,13Z,16Z,19Z)-docosa-4,7,10,13,16,19-hexaenamido)ethyl)carbamate] | pIC50 (HIV-1IIIB strain; Human immunodeficiency virus 1, 144 h, CEM-SS cells, HIV-1 IIIB strain, 6 days, MTS, read-out: IC50 HIV-1IIIB strain): < 7.00; NF-kB inhibitory activity IC50 μM (NF-κB): + +
3.70 to 4.30 | CC/C=C\C/C=C\C/C=C\C/C=C\C/C=C\C/C=C\CCC(=O)NCCOCCNC(=O)OC[C@H]1O[C@H](n2cc(C)c(=O)[nH]c2=O)C[C@@H]1N=[N+]=[N-] [Example V-8, ((2S,3S,5S)-3-azido-5-(5-methyl-2,4-dioxo-3,4-dihydropyrimidin-1(2H)-yl)tetrahydrofuran-2-yl)methyl (2-(2-((4Z,7Z,10Z,13Z,16Z,19Z)-docosa-4,7,10,13,16,19-hexaenamido)ethoxy)ethyl)carbamate] | –
3.70 to 4.30 | CC/C=C\C/C=C\C/C=C\C/C=C\C/C=C\CCCC(=O)Nc1ncc2ncn(CCC(COC(C)=O)COC(C)=O)c2n1 [Example V-12, 2-(2-(2-((5Z,8Z,11Z,14Z,17Z)-icosa-5,8,11,14,17-pentaenamido)-9H-purin-9-yl)ethyl)propane-1,3-diyl diacetate] | –
– | CC/C=C\C/C=C\C/C=C\C/C=C\C/C=C\C/C=C\CCC(=O)NCCNP(=O)(OC[C@H]1O[C@H](n2cc(C)c(=O)[nH]c2=O)C[C@@H]1N=[N+]=[N-])Oc1ccccc1 (stereo partly drawn) [II-25, ((2S,3S,5S)-3-azido-5-(5-methyl-2,4-dioxo-3,4-dihydropyrimidin-1(2H)-yl)tetrahydrofuran-2-yl)methyl phenyl (2-((4Z,7Z,10Z,13Z,16Z,19Z)-docosa-4,7,10,13,16,19-hexaenamido)ethyl)phosphoramidate] | IC50 (HIV-1IIIB strain): < 100 nM; NF-kB inhibitory activity IC50 μM (NF-κB): + +
3.70 to 4.30 | CC/C=C\C/C=C\C/C=C\C/C=C\C/C=C\C/C=C\CCC(=O)Nc1ncc2ncn(CCC(COC(C)=O)COC(C)=O)c2n1 [Example V-10, 2-(2-(2-((4Z,7Z,10Z,13Z,16Z,19Z)-docosa-4,7,10,13,16,19-hexaenamido)-9H-purin-9-yl)ethyl)propane-1,3-diyl diacetate] | –
< 3.70 | Nc1ccn([C@@H]2CS[C@H](CO)O2)c(=O)n1 [Lamivudine, lamivudine, reference compound] | –
– | CC/C=C\C/C=C\C/C=C\C/C=C\C/C=C\C/C=C\CCC(=O)Nc1ccc(S(=O)(=O)N(CC(C)C)C[C@@H](O)[C@H](Cc2ccccc2)NC(=O)O[C@H]2CO[C@H]3OCC[C@H]32)cc1 [VII-1, (3R,3aS,6aR)-hexahydrofuro[2,3-b]furan-3-yl ((2S,3R)-4-(4-((4Z,7Z,10Z,13Z,16Z,19Z)-docosa-4,7,10,13,16,19-hexaenamido)-N-isobutylphenylsulfonamido)-3-hydroxy-1-phenylbutan-2-yl)carbamate] | IC50 HIV-1IIIB strain (nM) (HIV-1IIIB strain; [1]): + ++; IC50 (NF-κB): 50 to 200 µM
< 3.70 | C=C1[C@H](CO)[C@@H](O)C[C@@H]1n1cnc2c(=O)[nH]c(N)nc21 [Entecavir, entecavir, reference compound] | –
3.70 to 4.30 | CC/C=C\C/C=C\C/C=C\C/C=C\C/C=C\C/C=C\CCC(=O)N[C@H](C(=O)OC[C@H]1O[C@H](n2cc(C)c(=O)[nH]c2=O)C[C@@H]1N=[N+]=[N-])C(C)C [Example V-9, (S)-((2S,3S,5S)-3-azido-5-(5-methyl-2,4-dioxo-3,4-dihydropyrimidin-1(2H)-yl)tetrahydrofuran-2-yl)methyl 2-((4Z,7Z,10Z,13Z,16Z,19Z)-docosa-4,7,10,13,16,19-hexaenamido)-3-methylbutanoate] | –
< 3.70 | Cc1cn([C@H]2C[C@H](N=[N+]=[N-])[C@@H](CO)O2)c(=O)[nH]c1=O [Zidovudine, reference compound] | –
3.70 to 4.30 | CC/C=C\C/C=C\C/C=C\C/C=C\C/C=C\C/C=C\CCC(=O)Nc1ncc2ncn(CCC(CO)CO)c2n1 [Example V-11, (4Z,7Z,10Z,13Z,16Z,19Z)—N-(9-(4-hydroxy-3-(hydroxymethyl)butyl)-9H-purin-2-yl)docosa-4,7,10,13,16,19-hexaenamide] | –
– | CC/C=C\C/C=C\C/C=C\C/C=C\C/C=C\CCCC(=O)NCCNP(=O)(OC)OC[C@@H]1O[C@H](n2ccc(N)nc2=O)CS1 (stereo partly drawn) [II-70, ((2R,5S)-5-(4-amino-2-oxopyrimidin-1(2H)-yl)-1,3-oxathiolan-2-yl)methyl methyl (2-((5Z,8Z,11Z,14Z,17Z)-icosa-5,8,11,14,17-pentaenamido)ethyl)phosphoramidate] | IC50 (NF-κB): 50 to 200 µM
– | CC/C=C\C/C=C\C/C=C\C/C=C\C/C=C\CCCC(=O)NCCNP(=O)(OC)OC[C@H]1O[C@H](n2cc(C)c(=O)[nH]c2=O)C[C@@H]1N=[N+]=[N-] (stereo partly drawn) [II-30, ((2S,3S,5S)-3-azido-5-(5-methyl-2,4-dioxo-3,4-dihydropyrimidin-1(2H)-yl)tetrahydrofuran-2-yl)methyl methyl (2-((5Z,8Z,11Z,14Z,17Z)-icosa-5,8,11,14,17-pentaenamido)ethyl)phosphoramidate] | IC50 (HIV-1IIIB strain): > 100 nM; NF-kB inhibitory activity IC50 μM (NF-κB): + +
– | CC(C)CN(C[C@@H](O)[C@H](Cc1ccccc1)NC(=O)O[C@H]1CO[C@H]2OCC[C@H]21)S(=O)(=O)c1ccc(N)cc1 [Darunavir, darunavir, reference compound] | IC50 (NF-κB): > 200 µM
